According to patent US20240180822A1, “NON-NANOPARTICULATE APPLICATION FORMS OF MACROLIDES” (Nucleus Medical GmbH, priority 2021, published 2024):

Experiment: saturation solubility of tacrolimus in different solvents (HPLC in the supernatant)
Type: physicochemical
Settings: all tested organic solvents
Method: Tacrolimus was dissolved in an organic solvent. Particularly, the saturation solubility of tacrolimus in different organic solvents was tested. Crystalline active ingredient was added to a defined amount of solvent at room temperature while stirring until an insoluble sediment was formed. After filtration, the concentration of active ingredient was quantified by HPLC in the supernatant.

solubility in organic solvents: soluble in all tested organic solvents
Compound: C=CC[C@@H]1/C=C(\C)C[C@H](C)C[C@H](OC)[C@H]2O[C@@](O)(C(=O)C(=O)N3CCCC[C@H]3C(=O)O[C@H](/C(C)=C/[C@@H]3CC[C@@H](O)[C@H](OC)C3)[C@H](C)[C@@H](O)CC1=O)[C@H](C)C[C@@H]2OC [Tacrolimus]
